Results on two compounds are retold here after US20260200850A1, “CRYSTALLINE FORMS OF A PIPERIDINE INHIBITOR OF SLC6A19 FUNCTION” (Jnana Therapeutics Inc., priority 2022, published 2026).

The term solubility denotes the dissolved amount per volume that the medium holds. The low end stands for little dissolved substance, the high end for much dissolved substance. In general, Solubility refers to the dissolved amount per volume that the medium holds. A lower Solubility goes with a poorly soluble substance.

Each structure is given as a SMILES string. In brackets after ≈: the same amount, converted by molar mass.

The series is described as follows: Solubility measurements of polymorphic Form I and II in biorelevant fluids. Particulars: for solubility at 1.5 h / solubility at 3 h / solubility at 24 h: thermodynamic from solid. It counts as physicochemical. The text has this:
Example 3: Solubility Measurements of Form I and Form II

Turning to `NC(=O)N1CCC[C@@H](N(C(=O)NCc2ccc(OC(F)(F)F)cc2F)C2CC2)C1` [Form I, (R)-3-(1-cyclopropyl-3-(2-fluoro-4-(trifluoromethoxy)benzyl)ureido) piperidine-1-carboxamide], the concentration in solution (5% HPBCD/2% TPGS, 25 °C, aqueous with cosolvent or surfactant or cyclodextrin, 1.5 h) (solubility at 1.5 h) came to 4960 µg/mL (≈ 11900 µM); the solubility at 1.5 h (FaSSIF, 37 °C, 1.5 h) was 360 µg/mL (≈ 860 µM); the solubility at 1.5 h (SGF, 37 °C, simulated gastric fluid, 1.5 h) is 400 µg/mL (≈ 956 µM). Also, the solubility at 3 h is 5110 µg/mL (≈ 12200 µM) (5% HPBCD/2% TPGS, 25 °C, aqueous with cosolvent or surfactant or cyclodextrin, 3 h); 380 µg/mL (≈ 908 µM) (FaSSIF, 37 °C, 3 h); 420 µg/mL (≈ 1000 µM) (SGF, 37 °C, simulated gastric fluid, 3 h). Further, the solubility at 24 h by setting is: (5% HPBCD/2% TPGS, 25 °C, aqueous with cosolvent or surfactant or cyclodextrin, 24 h) 5280 µg/mL (≈ 12600 µM); (FaSSIF, 37 °C, 24 h) 350 µg/mL (≈ 837 µM); (SGF, 37 °C, simulated gastric fluid, 24 h) 370 µg/mL (≈ 884 µM). Besides, the Solubility reads like this: (FeSSIF, 37° C., 1.5 h) 910 µg/mL (≈ 2170 µM); (FeSSIF, 37° C., 3 h) 900 µg/mL (≈ 2150 µM); (FeSSIF, 37° C., 24 h) 980 µg/mL (≈ 2340 µM). In addition, the “Solubility, comparison of the forms” value (relevant biofluids, in words) was “increased solubility relative to Form II”.
With `NC(=O)N1CCC[C@@H](N(C(=O)NCc2ccc(OC(F)(F)F)cc2F)C2CC2)C1` [Form II, (R)-3-(1-cyclopropyl-3-(2-fluoro-4-(trifluoromethoxy)benzyl)ureido) piperidine-1-carboxamide], the Solubility by setting is: (5% HPBCD/2% TPGS, 25° C., 1.5 h) 4310 µg/mL (≈ 10300 µM); (5% HPBCD/2% TPGS, 25° C., 3 h) 4270 µg/mL (≈ 10200 µM); (5% HPBCD/2% TPGS, 25° C., 24 h) 4760 µg/mL (≈ 11400 µM); (FaSSIF, 37° C., 1.5 h) 310 µg/mL (≈ 741 µM); (FaSSIF, 37° C., 3 h) 270 µg/mL (≈ 645 µM); (FaSSIF, 37° C., 24 h) 240 µg/mL (≈ 574 µM). Besides, the Solubility is, setting by setting: (SGF, 37° C., 1.5 h) 260 µg/mL (≈ 621 µM); (SGF, 37° C., 3 h) 270 µg/mL (≈ 645 µM); (SGF, 37° C., 24 h) 300 µg/mL (≈ 717 µM). Also, the concentration in solution (FeSSIF, 37 °C, 1.5 h) (solubility at 1.5 h) was 740 µg/mL (≈ 1770 µM). Moreover, the concentration in solution (FeSSIF, 37 °C, 3 h) (solubility at 3 h) was 720 µg/mL (≈ 1720 µM). For the same compound, the solubility at 24 h (FeSSIF, 37 °C, 24 h) worked out at 720 µg/mL (≈ 1720 µM).
